Data on 7 compounds can be found in patent US10414769B2, “5,8-dimethyl-9-phenyl-5,8-dihydro-6H-pyrazolo[3,4-h]quinazolin-2-yl)-(1H-pyrazol-3-yl)-amines as IGF-1R/IR inhibitors” (Boehringer Ingelheim International GmbH, priority 2015, dated 2019).

pIC50: −log10 of the molar value.

Common to all, as to assay type: biochemical
One experiment deals with T1, human IGF-1R (Homo sapiens, UniProt P08069).
T1 construct: human IGF-1R (amino acids 964-1370) is expressed as a fusion protein; made in house; host or cells: High Five insect cells (Invitrogen)
T1 sequence (P08069 964-1367 limits assumed): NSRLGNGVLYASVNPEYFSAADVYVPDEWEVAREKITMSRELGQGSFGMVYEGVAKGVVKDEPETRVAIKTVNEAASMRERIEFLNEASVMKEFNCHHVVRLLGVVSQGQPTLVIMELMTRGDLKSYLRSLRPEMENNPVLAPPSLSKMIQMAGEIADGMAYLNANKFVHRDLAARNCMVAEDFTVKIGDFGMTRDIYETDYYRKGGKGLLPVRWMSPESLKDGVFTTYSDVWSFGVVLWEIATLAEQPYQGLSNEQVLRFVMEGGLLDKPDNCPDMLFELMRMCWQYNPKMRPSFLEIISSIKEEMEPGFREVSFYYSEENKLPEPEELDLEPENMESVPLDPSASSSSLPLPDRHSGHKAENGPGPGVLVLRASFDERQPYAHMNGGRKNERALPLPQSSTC
The experiment is described as follows: Insulin-like growth factor-1 receptor (IGF-1R)-kinase assay (DELFIA). The settings on record: inhibition of IGF-1R-kinase activity. The procedure: Insulin-Like Growth Factor-1 Receptor (IGF-1R)-Kinase Assay
The kinase activity is measured by DELFIA® assay (dissociation-enhanced lanthanide fluorescence immunoassay, Perkin Elmer). The cytoplasmic kinase domain of human IGF-1R (amino acids 964-1370) is expressed as a fusion protein with a glutathione-S-transferase tag (IGF-1R-GST) in High Five™ Cells (Invitrogen). Enzyme activity is measured in the presence of substances and a control substance. Poly-glutamate-tyrosine peptide (pEY, Sigma Aldrich) and biotinylated pEY (bio-pEY) are used as reaction substrates.
10 μL of substance in 25% DMSO are mixed with 30 μL of IGF-1R-GST solution (67 mM HEPES pH 7.4, 15 μg/mL pEY, 1.7 μg/mL bio-pEY, 13.3 mM MgCl2, 3.3 mM dithiothreitol, 0.0033% Brij 35, 2 ng IGF-1R-GST) in 96-well plates. The reactions are started with 10 μL of a 750 μM ATP solution. After 40 min at RT the reactions are stopped with 50 μL of stop solution (250 mM EDTA, 20 mM HEPES pH 7.4). 90 μL from each reaction are transferred onto streptavidin-coated 96-well plates. After 120 min incubation at RT the plates are washed three times with 200 μL phosphate-buffered saline (PBS) per well. The plates are incubated for 60 min with 100 μL of europium-coupled antibody against phospho-tyrosine (diluted 1/2000 in Perkin Elmer DELFIA assay buffer) per well. The plates are washed three times with 200 μL per well of DELFIA washing buffer (Perkin Elmer). 100 μL DELFIA Enhancement Solution (Perkin Elmer) is added to each well, and the plates are incubated for 10 min. The fluorescence signal is measured with a Wallac Victor TRF Reader. IC50 values for the inhibition of the IGF-1R-kinase activity are calculated using the programme GraphPad (Version 3.0).

In the next experiment the target is T2, ACVR1B (ALK4) (Homo sapiens, UniProt P36896).
T2 construct: purchased Life Technologies PV4312
T2 sequence (P36896 24-505): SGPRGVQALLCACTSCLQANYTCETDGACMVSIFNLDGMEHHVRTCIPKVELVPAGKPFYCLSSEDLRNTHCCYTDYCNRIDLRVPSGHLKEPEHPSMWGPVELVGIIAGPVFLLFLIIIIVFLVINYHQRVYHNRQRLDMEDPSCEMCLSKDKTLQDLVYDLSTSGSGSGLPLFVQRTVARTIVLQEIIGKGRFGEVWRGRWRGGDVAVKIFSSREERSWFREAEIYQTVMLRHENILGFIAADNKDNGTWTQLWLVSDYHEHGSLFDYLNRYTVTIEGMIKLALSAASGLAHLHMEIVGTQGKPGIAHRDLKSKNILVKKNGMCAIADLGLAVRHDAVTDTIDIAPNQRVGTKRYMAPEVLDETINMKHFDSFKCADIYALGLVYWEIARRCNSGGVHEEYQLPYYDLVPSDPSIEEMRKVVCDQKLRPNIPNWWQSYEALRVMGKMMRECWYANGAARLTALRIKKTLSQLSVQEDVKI
Kind of experiment: Z'-LYTE kinase selectivity assay ACVR1B. The text has this: (§1) In order to compare the kinase selectivity of compounds (I) according to the invention with known prior art compounds the commercially provided SelectScreen® Kinase Profiling Service (Z′-LYTE®) was used (Life Technologies GmbH, Darmstadt, Germany) to investigate the ability of the compounds to inhibit a number of different, representatively selected human kinases. Further details regarding this service are available on the Life Technologies website at
(§2) The Z′-LYTE® biochemical assay employs a fluorescence-based, coupled-enzyme format and is based on the differential sensitivity of phosphorylated and non-phosphorylated peptides to proteolytic cleavage. The peptide substrate is labeled with two fluorophores—one at each end—that make up a FRET pair.
(§3) In the primary reaction, the kinase transfers the gamma-phosphate of ATP to a single tyrosine, serine or threonine residue in a synthetic FRET-peptide. In the secondary reaction, a site-specific protease recognizes and cleaves non-phosphorylated FRET-peptides. Phosphorylation of FRET-peptides suppresses cleavage by the Development Reagent. Cleavage disrupts FRET between the donor (i.e., coumarin) and acceptor (i.e., fluorescein) fluorophores on the FRET-peptide, whereas uncleaved, phosphorylated FRET-peptides maintain FRET. A ratiometric method, which calculates the ratio (the Emission Ratio) of donor emission to acceptor emission after excitation of the donor fluorophore at 400 nm, is used to quantitate reaction progress, as shown in the equation below.
(§4) The Test Compounds are screened at 1 μM.
The 2×ACVR1B (ALK4) (# PV4312)/Ser/Thr 16 (Z′-LYTE® Kinase Assay Kit—Ser/Thr 16 Peptide, # PV 3802) mixture is prepared in 50 mM HEPES pH 7.5, 0.01% BRIJ-35, 10 mM MnCl2, 1 mM EGTA, 2 mM DTT, 0.02% NaN3. The final 10 μL Kinase Reaction consists of 9.15-60 ng ACVR1B (ALK4) and 2 μM Ser/Thr 16 in 50 mM HEPES pH 7.5, 0.01% BRIJ-35, 5 mM MgCl2, 5 mM MnCl2, 1 mM EGTA, 1 mM DTT, 0.01% NaN3. After the 1 hour Kinase Reaction incubation, 5 μL of a 1:16 dilution of Development Reagent B is added.

For a further experiment, the target named is T3, LCK (Homo sapiens, UniProt P06239).
T3 construct: purchased Life Technologies P 3043
T3 sequence (P06239 whole entry): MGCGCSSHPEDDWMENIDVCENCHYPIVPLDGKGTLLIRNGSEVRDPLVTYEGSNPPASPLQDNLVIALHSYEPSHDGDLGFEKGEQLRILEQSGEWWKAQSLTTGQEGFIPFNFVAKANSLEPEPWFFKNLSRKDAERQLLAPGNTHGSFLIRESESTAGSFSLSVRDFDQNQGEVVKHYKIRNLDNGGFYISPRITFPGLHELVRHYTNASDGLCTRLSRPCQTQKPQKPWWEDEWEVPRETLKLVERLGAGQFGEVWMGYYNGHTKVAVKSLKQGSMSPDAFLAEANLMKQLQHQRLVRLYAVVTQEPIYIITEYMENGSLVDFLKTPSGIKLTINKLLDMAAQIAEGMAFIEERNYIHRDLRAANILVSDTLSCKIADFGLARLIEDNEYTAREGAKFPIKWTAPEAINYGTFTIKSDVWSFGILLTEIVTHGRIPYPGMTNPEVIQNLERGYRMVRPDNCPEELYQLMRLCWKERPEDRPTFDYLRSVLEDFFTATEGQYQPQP
The experiment is described as follows: Z'-LYTE kinase selectivity assay LCK.
Description: as §1, §2, §3, §4
The 2×LCK (# P 3043)/Tyr 02 (Z′-LYTE® Kinase Assay Kit—Tyrosine 2 Peptide, # PV 3191) mixture is prepared in 50 mM HEPES pH 7.5, 0.01% BRIJ-35, 10 mM MgCl2, 1 mM EGTA. The final 10 μL Kinase Reaction consists of 2.46-50 ng LCK and 2 μM Tyr 02 in 50 mM HEPES pH 7.5, 0.01% BRIJ-35, 10 mM MgCl2, 1 mM EGTA. After the 1 hour Kinase Reaction incubation, 5 μL of a 1:128 dilution of Development Reagent A is added.

Consider `C[C@@H]1Cc2nn(C)c(-c3ccccc3)c2-c2nc(Nc3ccn(CCN4CCN(C)CC4)n3)ncc21` [Compound I-1], for which the pIC50 (in general, −log10 of the IC50, conventionally taken in molar units) against human IGF-1R is 9.05. The inhibition (in general, the relative decrease from the control value, in per cent) at 1 µM on ACVR1B (ALK4) is -10%; at LCK it was 85%.
The matching figures for `COCCN1CCN(CCn2ccc(Nc3ncc4c(n3)-c3c(nn(C)c3-c3ccccc3)C[C@H]4C)n2)CC1` [Compound I-11]: 9.05, -11% and 76%.
As to `C[C@@H]1Cc2nn(C)c(-c3ccccc3)c2-c2nc(Nc3ccn(CCN4CCOCC4)n3)ncc21` [Compound I-2], at human IGF-1R, the negative-log IC50 (pIC50) was 8.89. Also, the inhibition at 1 µM against ACVR1B (ALK4) was 0%; on LCK, 78%.
The like results for `C[C@@H]1Cc2nn(C)c(-c3ccccc3)c2-c2nc(Nc3ccn(CCN4CCN(CC(C)(C)O)CC4)n3)ncc21` [Compound I-3] were, in that order, 8.72, 0% and 82%.
The compound `C[C@@H]1Cc2nn(C)c(-c3ccccc3)c2-c2nc(Nc3ccn(CCN4CCN(CC5CCCO5)CC4)n3)ncc21` (stereo partly drawn) [Compound I-9] showed a pIC50 on human IGF-1R of 8.92. Moreover, the inhibition at 1 µM came to 7% against ACVR1B (ALK4) and 80% against LCK.
The like results for `CC(O)CN1CCN(CCn2ccc(Nc3ncc4c(n3)-c3c(nn(C)c3-c3ccccc3)C[C@H]4C)n2)CC1` (stereo partly drawn) [Compound I-7] were, in that order, 9.00, 0% and 84%.
The matching figures for `C[C@@H]1Cc2nn(C)c(-c3ccccc3)c2-c2nc(Nc3ccn(CCN4CCN(CC(=O)OC5CCOCC5)CC4)n3)ncc21` [Compound I-8]: 8.55, -4% and 59%.
